Measurements as given in the NIST ThermoML archive (doi:10.1016/j.tca.2010.08.002).
“And” between values parts separate entries of the source, which are not always exact repeats. Equal values may be shown once. Numbers after ± are expanded uncertainties.

Experiment: molar heat capacity at saturation pressure
Conditions: Crystal, Vacuum adiabatic calorimetry

CCCCn1cc[n+](C)c1.O=S(=O)([O-])C(F)(F)F [1-butyl-3-methylimidazolium trifluoromethanesulfonate]
Conditions	molar heat capacity
5.202 K	1.664 ± 0.032 J/K/mol
5.437 K	1.901 ± 0.034 J/K/mol
5.715 K	2.221 ± 0.038 J/K/mol
5.999 K	2.57 ± 0.041 J/K/mol
6.317 K	2.999 ± 0.046 J/K/mol
6.671 K	3.523 ± 0.05 J/K/mol
7.032 K	4.097 ± 0.056 J/K/mol
7.395 K	4.732 ± 0.061 J/K/mol
7.763 K	5.393 ± 0.066 J/K/mol
8.135 K	6.123 ± 0.072 J/K/mol
8.512 K	6.893 ± 0.078 J/K/mol
8.894 K	7.698 ± 0.084 J/K/mol
9.277 K	8.558 ± 0.09 J/K/mol
9.664 K	9.444 ± 0.096 J/K/mol
10.05 K	10.36 ± 0.1 J/K/mol
10.55 K	11.59 ± 0.11 J/K/mol
11.16 K	13.11 ± 0.12 J/K/mol
11.77 K	14.7 ± 0.13 J/K/mol
12.38 K	16.35 ± 0.14 J/K/mol
13 K	18.04 ± 0.15 J/K/mol
13.62 K	19.77 ± 0.16 J/K/mol
14.25 K	21.58 ± 0.17 J/K/mol
14.88 K	23.41 ± 0.18 J/K/mol
15.62 K	25.59 ± 0.19 J/K/mol
16.48 K	28.21 ± 0.2 J/K/mol
17.34 K	30.75 ± 0.21 J/K/mol
18.21 K	33.27 ± 0.22 J/K/mol
19.07 K	35.79 ± 0.23 J/K/mol
19.94 K	38.35 ± 0.23 J/K/mol
21.15 K	41.92 ± 0.24 J/K/mol
22.72 K	46.46 ± 0.25 J/K/mol
24.29 K	51.02 ± 0.25 J/K/mol
25.87 K	55.46 ± 0.26 J/K/mol
27.45 K	59.71 ± 0.25 J/K/mol
28.86 K	63.39 ± 0.25 J/K/mol
30.34 K	67.25 ± 0.18 J/K/mol
32.09 K	71.61 ± 0.19 J/K/mol
34 K	76.13 ± 0.2 J/K/mol
35.92 K	80.4 ± 0.21 J/K/mol
37.84 K	84.48 ± 0.21 J/K/mol
39.76 K	88.4 ± 0.22 J/K/mol
41.78 K	92.42 ± 0.23 J/K/mol
43.9 K	96.53 ± 0.24 J/K/mol
46.01 K	100.5 ± 0.2 J/K/mol
48.13 K	104.3 ± 0.3 J/K/mol
50.25 K	108 ± 0.3 J/K/mol
52.38 K	111.5 ± 0.3 J/K/mol
54.5 K	114.9 ± 0.3 J/K/mol
56.63 K	118.1 ± 0.3 J/K/mol
58.75 K	121.2 ± 0.3 J/K/mol
60.89 K	124.2 ± 0.3 J/K/mol
63.03 K	127.2 ± 0.3 J/K/mol
65.17 K	130.1 ± 0.3 J/K/mol
67.3 K	133 ± 0.3 J/K/mol
69.44 K	135.8 ± 0.3 J/K/mol
71.69 K	138.7 ± 0.3 J/K/mol
74.03 K	141.6 ± 0.3 J/K/mol
76.39 K	144.5 ± 0.3 J/K/mol
78.69 K	147.6 ± 0.3 J/K/mol and 147.7 ± 0.3 J/K/mol
78.74 K	147.4 ± 0.3 J/K/mol
80.59 K	149.7 ± 0.3 J/K/mol
80.61 K	149.7 ± 0.3 J/K/mol
81.1 K	150.1 ± 0.3 J/K/mol
82.36 K	151.6 ± 0.3 J/K/mol
82.4 K	151.6 ± 0.3 J/K/mol
83.47 K	152.9 ± 0.4 J/K/mol
84.13 K	153.6 ± 0.4 J/K/mol
84.19 K	153.7 ± 0.4 J/K/mol
85.92 K	155.7 ± 0.4 J/K/mol
86 K	155.7 ± 0.4 J/K/mol
87.73 K	157.6 ± 0.4 J/K/mol
87.81 K	157.6 ± 0.4 J/K/mol
89.54 K	159.5 ± 0.4 J/K/mol
89.64 K	159.6 ± 0.4 J/K/mol
91.35 K	161.5 ± 0.4 J/K/mol
91.48 K	161.6 ± 0.4 J/K/mol
93.18 K	163.4 ± 0.4 J/K/mol
93.33 K	163.6 ± 0.4 J/K/mol
95.02 K	165.5 ± 0.4 J/K/mol
95.19 K	165.6 ± 0.4 J/K/mol
96.87 K	167.3 ± 0.4 J/K/mol
97.05 K	167.5 ± 0.4 J/K/mol
98.72 K	169.2 ± 0.4 J/K/mol
98.92 K	169.4 ± 0.4 J/K/mol
100.59 K	171.1 ± 0.4 J/K/mol
100.8 K	171.4 ± 0.4 J/K/mol
102.64 K	173.1 ± 0.4 J/K/mol
102.7 K	173.3 ± 0.4 J/K/mol
104.6 K	175.1 ± 0.4 J/K/mol
104.89 K	175.5 ± 0.4 J/K/mol
106.5 K	177 ± 0.4 J/K/mol
107.15 K	177.7 ± 0.4 J/K/mol
108.41 K	178.9 ± 0.4 J/K/mol
109.42 K	179.9 ± 0.4 J/K/mol
110.33 K	180.8 ± 0.4 J/K/mol
111.71 K	182.1 ± 0.4 J/K/mol
112.25 K	182.6 ± 0.4 J/K/mol
114.01 K	184.4 ± 0.4 J/K/mol
114.17 K	184.5 ± 0.4 J/K/mol
116.1 K	186.5 ± 0.4 J/K/mol
116.31 K	186.8 ± 0.4 J/K/mol
118.04 K	189.9 ± 0.4 J/K/mol
118.61 K	190.7 ± 0.4 J/K/mol
119.97 K	192.6 ± 0.4 J/K/mol
120.92 K	192.7 ± 0.4 J/K/mol
121.91 K	193.4 ± 0.4 J/K/mol
123.24 K	193.9 ± 0.4 J/K/mol
123.85 K	194.3 ± 0.4 J/K/mol
125.56 K	195.3 ± 0.4 J/K/mol
125.8 K	195.5 ± 0.4 J/K/mol
127.76 K	196.9 ± 0.4 J/K/mol
127.9 K	197 ± 0.4 J/K/mol
129.72 K	198.4 ± 0.4 J/K/mol
130.24 K	198.8 ± 0.4 J/K/mol
131.68 K	200 ± 0.4 J/K/mol
132.58 K	200.7 ± 0.4 J/K/mol
133.65 K	201.6 ± 0.4 J/K/mol
134.93 K	202.7 ± 0.4 J/K/mol
135.63 K	203.2 ± 0.4 J/K/mol
137.28 K	204.7 ± 0.4 J/K/mol
137.6 K	204.9 ± 0.4 J/K/mol
139.58 K	206.5 ± 0.4 J/K/mol
139.64 K	206.6 ± 0.4 J/K/mol
141.56 K	208.3 ± 0.4 J/K/mol
142 K	208.7 ± 0.4 J/K/mol
143.55 K	210.1 ± 0.4 J/K/mol
144.36 K	210.9 ± 0.4 J/K/mol
145.53 K	211.9 ± 0.4 J/K/mol
146.73 K	213 ± 0.4 J/K/mol
147.51 K	213.7 ± 0.4 J/K/mol
149.09 K	215.2 ± 0.4 J/K/mol
149.5 K	215.5 ± 0.4 J/K/mol
151.45 K	217.4 ± 0.4 J/K/mol
151.48 K	217.4 ± 0.4 J/K/mol
153.46 K	219.3 ± 0.4 J/K/mol
153.82 K	219.6 ± 0.4 J/K/mol
155.44 K	221.2 ± 0.4 J/K/mol
156.18 K	221.9 ± 0.4 J/K/mol
157.42 K	223.1 ± 0.4 J/K/mol
158.55 K	224.2 ± 0.4 J/K/mol
159.41 K	225.1 ± 0.4 J/K/mol
160.91 K	226.5 ± 0.4 J/K/mol
161.39 K	226.9 ± 0.4 J/K/mol
163.28 K	228.8 ± 0.4 J/K/mol
163.37 K	228.9 ± 0.4 J/K/mol
165.35 K	230.9 ± 0.4 J/K/mol
165.64 K	231.1 ± 0.4 J/K/mol
167.32 K	232.8 ± 0.4 J/K/mol
168 K	233.4 ± 0.4 J/K/mol
169.3 K	234.8 ± 0.4 J/K/mol
